The results in this text go back to US20250215029A1 (Recludix Pharma, Inc., priority 2022, published 2025).

Assay [1] deals with T1, Recombinant STAT3 protein (STAT3 (G127-I722)) (Homo sapiens, UniProt P40763).
T1 construct: Recombinant STAT3 protein (STAT3 (G127-I722))
Nature of the assay: STAT3 Fluorescence Polarization (FP) Assay. In kind it is binding. To be noted: STAT3 (G127-I722) 25 nM, probe 5-FAM-GpYLPQTV-NH2 2 nM, 45-minute incubation; read-out: STAT3 (FP assay IC50 class). Summed up: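 Displacement of a 2 nM 5-FAM-labelled pY peptide (GpYLPQTV) from 25 nM recombinant STAT3 (G127-I722) was monitored by fluorescence polarization. Incubation lasted 45 min at room temperature in pH 7.4 HEPES buffer containing 1% DMSO.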

For assay [2], the target named is T2, Recombinant STAT6 protein (STAT6 (W123-T658)) (Homo sapiens, UniProt P42226).
T2 construct: Recombinant STAT6 protein (STAT6 (W123-T658))
T2 sequence (P42226 123-658): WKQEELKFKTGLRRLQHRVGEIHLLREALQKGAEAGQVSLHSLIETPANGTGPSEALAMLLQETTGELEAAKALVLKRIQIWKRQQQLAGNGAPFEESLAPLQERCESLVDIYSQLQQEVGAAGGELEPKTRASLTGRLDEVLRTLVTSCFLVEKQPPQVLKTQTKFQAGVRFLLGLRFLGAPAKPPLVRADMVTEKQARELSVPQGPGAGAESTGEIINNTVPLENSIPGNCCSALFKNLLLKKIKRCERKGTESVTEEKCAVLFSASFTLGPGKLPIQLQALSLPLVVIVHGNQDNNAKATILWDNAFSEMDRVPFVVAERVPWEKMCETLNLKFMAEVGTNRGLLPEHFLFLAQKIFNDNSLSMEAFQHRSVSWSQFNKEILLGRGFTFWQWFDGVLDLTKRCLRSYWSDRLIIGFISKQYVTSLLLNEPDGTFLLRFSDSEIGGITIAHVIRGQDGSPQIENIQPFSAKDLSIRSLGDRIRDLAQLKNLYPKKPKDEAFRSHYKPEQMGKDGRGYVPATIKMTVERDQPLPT
In words: STAT6 Fluorescence Polarization (FP) Assay. It counts as binding. To be noted: STAT6 (W123-T658) 250 nM, probe 5-FAM-Ap[…]-NH2 2 nM, 45-minute incubation; read-out: STAT6 (FP assay IC50 class). The essentials:
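Displacement of a fluorescent phosphotyrosine peptide (2 nM) from 250 nM STAT6 (W123-T658) is measured by polarization after a 45-minute room-temperature incubation. Compounds are titrated serially at 1% DMSO, and IC50 values derive from regression of mP on log concentration.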
Background: Fluorescence polarisation rises when a labelled molecule tumbles more slowly, as on binding a larger partner.

Broadly, the IC50 is the concentration at which inhibition is half-maximal.

T1 sequence (P40763 127-722): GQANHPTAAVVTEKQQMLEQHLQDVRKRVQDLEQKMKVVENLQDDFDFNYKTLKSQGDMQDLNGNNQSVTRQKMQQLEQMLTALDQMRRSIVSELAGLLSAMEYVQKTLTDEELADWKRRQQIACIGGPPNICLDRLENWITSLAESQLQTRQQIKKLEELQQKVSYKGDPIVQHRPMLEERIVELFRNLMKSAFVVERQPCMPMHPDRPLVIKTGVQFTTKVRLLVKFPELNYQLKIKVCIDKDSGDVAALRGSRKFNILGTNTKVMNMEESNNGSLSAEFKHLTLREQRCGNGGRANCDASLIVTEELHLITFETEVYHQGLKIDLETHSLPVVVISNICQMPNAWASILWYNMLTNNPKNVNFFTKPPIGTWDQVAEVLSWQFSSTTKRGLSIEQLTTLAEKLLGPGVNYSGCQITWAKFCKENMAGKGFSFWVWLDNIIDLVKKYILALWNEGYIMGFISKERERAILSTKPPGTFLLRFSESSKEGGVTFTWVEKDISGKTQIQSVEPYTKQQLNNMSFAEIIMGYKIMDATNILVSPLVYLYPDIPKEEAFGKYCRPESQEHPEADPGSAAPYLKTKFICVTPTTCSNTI

Consider `COCCOC1(c2ccccn2)CN(C(=O)[C@@H]2CC[C@@H]3CCCC[C@H](NC(=O)c4cc5cc(C(F)P(=O)(O)O)ccc5s4)C(=O)N32)C1` (stereo partly drawn) [Compound 615, (fluoro(2-(((3S,6S,10aS)-3-(3-(2-methoxyethoxy)-3-(pyridin-2-yl)azetidine-1-carbonyl)-5-oxodecahydropyrrolo[1,2-a]azocin-6-yl)carbamoyl)benzo [b]thiophen-5-yl)methyl) phosphonic acid], for which the IC50 was below 0.1 µM in assay [1] and 3 to 30 µM in assay [2].
On the same counts, the results for `O=C(N[C@H]1CCCC[C@H]2CC[C@@H](C(=O)N3CC(OCC(F)F)(c4cccnc4)C3)N2C1=O)c1cc2cc(C(F)P(=O)(O)O)ccc2s1` (stereo partly drawn) [Compound 616, ((2-(((3S,6S,10aS)-3-(3-(2,2-difluoroethoxy)-3-(pyridin-3-yl)azetidine-1-carbonyl)-5-oxodecahydropyrrolo [1,2-a]azocin-6-yl)carbamoyl)benzo [b]thiophen-5-yl)fluoromethyl) phosphonic acid] are below 0.1 µM and 3 to 30 µM.
On the same counts, the results for `Cn1ccc(=O)c(C2CN(C(=O)[C@@H]3CC[C@@H]4CCC[C@H](NC(=O)c5cc6cc(C(F)P(=O)(O)O)ccc6s5)C(=O)N43)C2)c1` (stereo partly drawn) [Compound 617, (fluoro(2-(((3S,6S,9aS)-3-(3-(1-methyl-4-oxo-1,4-dihydropyridin-3-yl)azetidine-1-carbonyl)-5-oxooctahydro-1H-pyrrolo[1,2-a]azepin-6-yl)carbamoyl)benzo [b]thiophen-5-yl)methyl) phosphonic acid] are 0.1 to 1 µM and 3 to 30 µM.
Turning to `CCc1ccncc1C1CN(C(=O)[C@@H]2CC[C@@H]3CCC[C@H](NC(=O)c4cc5cc(CP(=O)(O)O)ccn5n4)C(=O)N32)C1` [Compound 618, ((2-(((3S,6S,9aS)-3-(3-(4-ethylpyridin-3-yl)azetidine-1-carbonyl)-5-oxooctahydro-1H-pyrrolo[1,2-a]azepin-6-yl)carbamoyl)pyrazolo[1,5-a]pyridin-5-yl)methyl) phosphonic acid], the figures for the IC50 in assay [1] and in assay [2] were 1 to 10 µM and 3 to 30 µM, respectively.
On the same counts, the results for `O=C(N[C@H]1CCC[C@H]2CC[C@@H](C(=O)N3CC(c4ccnc(O)c4)C3)N2C1=O)c1cc2cc(C(F)P(=O)(O)O)ccc2s1` (stereo partly drawn) [Compound 619, (fluoro(2-(((3S,6S,9aS)-3-(3-(2-hydroxypyridin-4-yl)azetidine-1-carbonyl)-5-oxooctahydro-1H-pyrrolo[1,2-a]azepin-6-yl)carbamoyl)benzo [b]thiophen-5-yl)methyl) phosphonic acid] are 0.1 to 1 µM and 3 to 30 µM.
On the same counts, the results for `O=C(N[C@H]1CCC[C@H]2CC[C@@H](C(=O)N3CC(n4ccc(=O)nc4)C3)N2C1=O)c1cc2cc(C(F)P(=O)(O)O)ccc2s1` (stereo partly drawn) [Compound 620, (fluoro(2-(((3S,6S,9aS)-5-oxo-3-(3-(4-oxopyrimidin-1(4H)-yl)azetidine-1-carbonyl)octahydro-1H-pyrrolo[1,2-a]azepin-6-yl)carbamoyl)benzo [b]thiophen-5-yl)methyl) phosphonic acid] are 0.1 to 1 µM and 0.3 to 3 µM.
In the case of `O=C(N[C@H]1CCCC[C@H]2CC[C@@H](C(=O)N3CC(OCC(F)F)(c4ccccn4)C3)N2C1=O)c1cc2cc(C(F)P(=O)(O)O)ccc2s1` (stereo partly drawn) [Compound 621, ((2-(((3S,6S,10aS)-3-(3-(2,2-difluoroethoxy)-3-(pyridin-2-yl)azetidine-1-carbonyl)-5-oxodecahydropyrrolo [1,2-a]azocin-6-yl)carbamoyl)benzo [b]thiophen-5-yl)fluoromethyl) phosphonic acid], the IC50 is below 0.1 µM in assay [1] and 3 to 30 µM in assay [2].
On the same counts, the results for `O=C(N[C@H]1CCC[C@H]2CC[C@@H](C(=O)N3CC(c4ncccc4F)C3)N2C1=O)c1cc2cc(C(F)P(=O)(O)O)ccc2s1` (stereo partly drawn) [Compound 623, (fluoro(2-(((3S,6S,9aS)-3-(3-(3-fluoropyridin-2-yl)azetidine-1-carbonyl)-5-oxooctahydro-1H-pyrrolo[1,2-a]azepin-6-yl)carbamoyl)benzo [b]thiophen-5-yl)methyl) phosphonic acid] are 0.1 to 1 µM and 3 to 30 µM.
In the same order, the values of `Cn1cncc(C2CN(C(=O)[C@@H]3CC[C@@H]4CCC[C@H](NC(=O)c5cc6cc(C(F)P(=O)(O)O)ccc6s5)C(=O)N43)C2)c1=O` (stereo partly drawn) [Compound 624, (fluoro(2-(((3S,6S,9aS)-3-(3-(1-methyl-6-oxo-1,6-dihydropyrimidin-5-yl)azetidine-1-carbonyl)-5-oxooctahydro-1H-pyrrolo[1,2-a]azepin-6-yl)carbamoyl)benzo [b]thiophen-5-yl)methyl) phosphonic acid] are 1 to 10 µM and 3 to 30 µM.
For `COc1c(F)cncc1C1CN(C(=O)[C@@H]2CC[C@@H]3CCC[C@H](NC(=O)c4cc5cc(C(F)P(=O)(O)O)ccc5s4)C(=O)N32)C1` (stereo partly drawn) [Compound 625, (fluoro(2-(((3S,6S,9aS)-3-(3-(5-fluoro-4-methoxypyridin-3-yl)azetidine-1-carbonyl)-5-oxooctahydro-1H-pyrrolo[1,2-a]azepin-6-yl)carbamoyl)benzo [b]thiophen-5-yl)methyl) phosphonic acid], the results for the IC50 in assay [1] and in assay [2] were 0.1 to 1 µM and 3 to 30 µM, respectively.
On the same counts, the results for `O=C(N[C@H]1CCC[C@H]2CC[C@@H](C(=O)N3CC(c4cnccc4N4CCOCC4)C3)N2C1=O)c1cc2cc(C(F)P(=O)(O)O)ccc2s1` (stereo partly drawn) [Compound 626, (fluoro(2-(((3S,6S,9aS)-3-(3-(4-morpholinopyridin-3-yl)azetidine-1-carbonyl)-5-oxooctahydro-1H-pyrrolo[1,2-a]azepin-6-yl)carbamoyl)benzo [b]thiophen-5-yl)methyl) phosphonic acid] are below 0.1 µM and 3 to 30 µM.
On the same counts, the results for `CS(=O)(=O)CC1CN(C(=O)[C@@H]2CC[C@@H]3CCC[C@H](NC(=O)c4cc5cc(C(F)P(=O)(O)O)ccc5s4)C(=O)N32)C1` (stereo partly drawn) [Compound 627, (fluoro(2-(((3S,6S,9aS)-3-(3-((methylsulfonyl)methyl)azetidine-1-carbonyl)-5-oxooctahydro-1H-pyrrolo[1,2-a]azepin-6-yl)carbamoyl)benzo [b]thiophen-5-yl)methyl) phosphonic acid] are below 0.1 µM and 3 to 30 µM.
`Cn1cccc(C2CN(C(=O)[C@@H]3CC[C@@H]4CCC[C@H](NC(=O)c5cc6cc(C(F)P(=O)(O)O)ccc6s5)C(=O)N43)C2)c1=O` (stereo partly drawn) [Compound 628, (fluoro(2-(((3S,6S,9aS)-3-(3-(1-methyl-2-oxo-1,2-dihydropyridin-3-yl)azetidine-1-carbonyl)-5-oxooctahydro-1H-pyrrolo[1,2-a]azepin-6-yl)carbamoyl)benzo [b]thiophen-5-yl)methyl) phosphonic acid]: the IC50 in assay [1] was below 0.1 µM; in assay [2], 3 to 30 µM.
On the same counts, the results for `COc1c(C2CN(C(=O)[C@@H]3CC[C@@H]4CCC[C@H](NC(=O)c5cc6cc(C(F)P(=O)(O)O)ccc6s5)C(=O)N43)C2)cnn1C` (stereo partly drawn) [Compound 629, (fluoro(2-(((3S,6S,9aS)-3-(3-(5-methoxy-1-methyl-1H-pyrazol-4-yl)azetidine-1-carbonyl)-5-oxooctahydro-1H-pyrrolo[1,2-a]azepin-6-yl)carbamoyl)benzo [b]thiophen-5-yl)methyl) phosphonic acid] are 0.1 to 1 µM and 3 to 30 µM.
On the same counts, the results for `O=C(N[C@H]1CCC[C@H]2CC[C@@H](C(=O)N3CC4(C3)OCc3ccncc34)N2C1=O)c1cc2cc(C(F)P(=O)(O)O)ccc2s1` (stereo partly drawn) [Compound 630, (fluoro(2-(((3S,6S,9aS)-5-oxo-3-(1′H-spiro[azetidine-3,3′-furo [3,4-c]pyridine]-1-carbonyl)octahydro-1H-pyrrolo[1,2-a]azepin-6-yl)carbamoyl)benzo [b]thiophen-5-yl)methyl) phosphonic acid] are 0.1 to 1 µM and 3 to 30 µM.
In the same order, the values of `O=C(N[C@H]1CCC[C@H]2CC[C@@H](C(=O)N3CC(c4cnccc4OC(F)F)C3)N2C1=O)c1cc2cc(CP(=O)(O)O)ccc2s1` [Compound 632, ((2-(((3S,6S,9aS)-3-(3-(4-(difluoromethoxy)pyridin-3-yl)azetidine-1-carbonyl)-5-oxooctahydro-1H-pyrrolo[1,2-a]azepin-6-yl)carbamoyl)benzo [b]thiophen-5-yl)methyl) phosphonic acid] are 1 to 10 µM and 3 to 30 µM.
